According to the supplement of paper PMC4862054:

Legend:
[1] = system: DU-4475; assay: drug sensitivity score (DSS), CellTiter-Blue viability (DSS (AUC-based score)); higher = stronger viability inhibition; extreme values may be limits of the assay; conditions: incubation time: 72 h
Method: (§1)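 DSRT with the CellTiter-Blue (resazurin reduction) viability readout, fluorescence 560/590 nm, 72 h incubation. Plates were normalised to DMSO and benzethonium chloride controls. DSS is computed from the area under the fitted dose-response curve (5 or 9 concentrations).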

[2] = system: MDA-MB-453; assay: as above; conditions: incubation time: 72 h
Method: as §1

[3] = system: HDQ-P1; assay: as above; conditions: incubation time: 72 h
Method: as §1

[4] = system: MDA-MB-436; assay: as above; conditions: incubation time: 72 h
Method: as §1

[5] = system: HCC1937; assay: as above; conditions: incubation time: 72 h
Method: as §1

[6] = system: BT-549; assay: as above; conditions: incubation time: 72 h
Method: as §1

[7] = system: HCC1599; assay: as above; conditions: incubation time: 72 h
Method: as §1

[8] = system: BT-474; assay: as above; conditions: incubation time: 72 h
Method: as §1

[9] = system: MDA-MB-231; assay: as above; conditions: incubation time: 72 h
Method: as §1

[10] = system: HCC1143; assay: as above; conditions: incubation time: 72 h
Method: as §1

[11] = system: SK-BR-3; assay: as above; conditions: incubation time: 72 h
Method: as §1

[12] = system: MDA-MB-468; assay: as above; conditions: incubation time: 72 h
Method: as §1

[13] = system: CAL-85-1; assay: as above; conditions: incubation time: 72 h
Method: as §1

[14] = system: CAL-148; assay: as above; conditions: incubation time: 72 h
Method: as §1

[15] = system: Hs578T; assay: as above; conditions: incubation time: 72 h
Method: as §1

[16] = system: CAL-120; assay: as above; conditions: incubation time: 72 h
Method: as §1

[17] = system: CAL-51; assay: as above; conditions: incubation time: 72 h
Method: as §1

[18] = system: MFM-223; assay: as above; conditions: incubation time: 72 h
Method: as §1

[19] = system: HDQ-P1; assay: normalised viability (% of control), CellTiter-Blue; higher = more viable cells (100 = DMSO, 0 = benzethonium chloride kill control); conditions: 1 nM; incubation time: 72 h
Procedure, shortened: (§2)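 Vehicle (100) and a positive kill control (0) anchored the normalisation of each plate, and Z'-factor was used for quality control. Breast cancer cell lines in 20 µl suspension were incubated 72 h over compound in 5 µl medium in 384-well plates, followed by CellTiter-Blue at 560/590 nm. The value is normalised viability at a single listed concentration of the series.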

[20] = system: HCC1937; assay: as above; conditions: 1 nM; incubation time: 72 h
Procedure, shortened: as §2

[21] = system: CAL-148; assay: as above; conditions: 1 nM; incubation time: 72 h
Procedure, shortened: as §2

[22] = system: Hs578T; assay: as above; conditions: 1 nM; incubation time: 72 h
Procedure, shortened: as §2

[23] = system: CAL-120; assay: as above; conditions: 1 nM; incubation time: 72 h
Procedure, shortened: as §2

[24] = system: MFM-223; assay: as above; conditions: 1 nM; incubation time: 72 h
Procedure, shortened: as §2

[25] = system: HCC1937; conditions: 72 h
Procedure, shortened: (§3)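 Rows with a drug sensitivity score of zero were dropped, and EC50 was taken from the fitted percent-inhibition dose-response curve, censored at the highest concentration. Data were normalised on each plate to vehicle and a positive kill control and checked by Z'-factor. The assay seeded breast cancer cell lines in 20 µl onto 384-well plates pre-loaded with compound in 5 µl medium for 72 h, then added 2.5 µl CellTiter-Blue for 2 h at 37 °C and read fluorescence at 560/590 nm.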

[26] = system: SK-BR-3; conditions: 72 h
Procedure, shortened: as §3

[27] = system: MDA-MB-468; conditions: 72 h
Procedure, shortened: as §3

CCCCC(=O)OCC(=O)[C@]1(O)Cc2c(O)c3c(c(O)c2[C@@H](O[C@H]2C[C@H](NC(=O)C(F)(F)F)[C@H](O)[C@H](C)O2)C1)C(=O)c1c(OC)cccc1C3=O [Valrubicin]
drug sensitivity score [1]: 25 | drug sensitivity score [2]: 11 | drug sensitivity score [3]: 9.44 | drug sensitivity score [4]: 5.44 | drug sensitivity score [5]: 16 | drug sensitivity score [6]: 7.75 | drug sensitivity score [7]: 6.82 | drug sensitivity score [8]: 5.42 | drug sensitivity score [9]: 10.8 | drug sensitivity score [10]: 11.4 | drug sensitivity score [11]: 18.6 | drug sensitivity score [12]: 11.7 | drug sensitivity score [13]: 7.92 | drug sensitivity score [14]: 21.1 | drug sensitivity score [15]: 10.3 | drug sensitivity score [16]: 15.3 | drug sensitivity score [17]: 20.6 | drug sensitivity score [18]: 6.7 | normalised viability [19]: 96.8% | normalised viability [20]: 81.6% | normalised viability [21]: 88.8% | normalised viability [22]: 103% | normalised viability [23]: 92.9% | normalised viability [24]: 90.3% | EC50, CellTiter-Blue viability [25]: 211 nM | EC50, CellTiter-Blue viability [26]: 170 nM | EC50, CellTiter-Blue viability [27]: 369 nM
